Measured values as given in ChEMBL document CHEMBL3137667, “[Drug-induced liver injury; fourteenth updated edition of the bibliographic database of liver injuries and related drugs]” (Gastroenterol Clin Biol, 2004).

How the values were obtained:
[1] = Highest frequency of moderate liver toxicity observed during clinical trials, expressed as a percentage. [column '% BIOL' in source]; settings: human
[2] = Highest frequency of acute liver toxicity observed during clinical trials, expressed as a percentage. [column '% AIGUE' in source]; settings: human
[3] = Times to onset, minimal and maximal, observed in the indexed observations. [column 'DELAI' in source]; settings: human
[4] = human
[5] = human; remark: listed apart in the source
[6] = human; remark: listed apart in the source
[7] = human; remark: listed apart in the source
[8] = human, serum, 4383 h
[9] = human; remark: listed apart in the source
[10] = human; remark: listed apart in the source
[11] = human; remark: listed apart in the source
[12] = human, serum
[13] = human; remark: listed apart in the source
[14] = human; remark: listed apart in the source
[15] = human, serum; remark: listed apart in the source
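Wherever Hepatotoxicity (association with vascular disease) is given: count of indexed literature references reporting vascular liver injury in humans, e.g. peliosis hepatitis, hepatic veno-occlusive disease or Budd-Chiari syndrome.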
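Wherever Hepatotoxicity (benign tumour) is given: value is a count of indexed literature references citing a benign tumour confirmed by histopathology.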
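Wherever Hepatotoxicity (choleostasis) is given: human cholestatic liver injury, shown by histopathology or by peak ALT or AST elevation over alkaline phosphatase ratio below 2, value counts indexed literature reports.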
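Wherever Hepatotoxicity (chronic liver disease) is given: chronic liver injury confirmed by histopathology or persistently raised serum aminotransferase activity beyond 6 months, value given as the count of indexed literature references.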
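Wherever Hepatotoxicity (cirrhosis) is given: value is a count of indexed literature references reporting cirrhosis confirmed by histopathology.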
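Wherever Hepatotoxicity (cytolytic) is given: human cytolytic liver injury, shown by histopathology or by a ratio above 5 of peak ALT or AST elevation to alkaline phosphatase elevation, value counts indexed references.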
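Wherever Hepatotoxicity (granulomatous hepatitis) is given: value is a count of indexed literature references reporting granulomatous liver disease confirmed by histopathology.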
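Wherever Hepatotoxicity (malignant tumour) is given: malignant tumour confirmed by histopathology, value gives the count of indexed literature references reporting it.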
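Wherever Hepatotoxicity (severe hepatitis) is given: human clinical data: severe hepatitis, meaning potentially life-threatening liver failure or clinically observed cases, the value counts how many indexed literature references report it.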
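Wherever Hepatotoxicity (steatosis) is given: steatosis confirmed by histopathology, value is the count of indexed references.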

SMILES | Hepatotoxicity (moderate) [1] [%] | Hepatotoxicity (acute) [2] [%] | Hepatotoxicity (time to onset) [3] | Hepatotoxicity (choleostasis) [4] | Hepatotoxicity (steatosis) [5] | Hepatotoxicity (granulomatous hepatitis) [6] | Hepatotoxicity (benign tumour) [7] | Hepatotoxicity (chronic liver disease) [8] | Hepatotoxicity (cytolytic) [9] | Hepatotoxicity (malignant tumour) [10] | Hepatotoxicity (association with vascular disease) [11] | Hepatotoxicity (acute) [12] | Hepatotoxicity (cirrhosis) [13] | Hepatotoxicity (severe hepatitis) [14] | Hepatotoxicity (moderate) [15]
NCc1ccccc1CC(=O)N[C@@H]1C(=O)N2C(C(=O)O)=C(CSc3nnnn3CC(=O)O)CS[C@H]12 [CEFORANIDE] | 42.9 | 3.4 | 5 days - 3 weeks | 1 | 0 | 0 | 0 | 0 | 2 | 0 | 0 | 2 | 0 | 0 | 6
O=C(Oc1ccccc1C(=O)O)c1ccccc1O [SALSALATE] | 15 | 5 | 1 day - 2 weeks | 0 | 0 | 0 | 0 | 0 | 2 | 0 | 0 | 2 | 0 | 0 | 1
COCC(=O)Nc1c(I)c(C(=O)NCC(O)CO)c(I)c(C(=O)N(C)CC(O)CO)c1I (stereo not given) [IOPROMIDE] | 0 | 0 | < 1 days | 0 | 0 | 0 | 0 | 0 | 1 | 0 | 0 | 1 | 0 | 0 | 0
OCCN1CCN(CCCN2c3ccccc3C=Cc3ccccc32)CC1 [OPIPRAMOL] | 0 | 0 | 11 days - 11 weeks | 0 | 0 | 0 | 0 | 0 | 2 | 0 | 0 | 2 | 0 | 1 | 0
Cc1cc(C(=O)NNCc2ccccc2)no1 [ISOCARBOXAZID] | 0 | 0 | 1 month - 4 months | 2 | 0 | 0 | 0 | 0 | 4 | 0 | 0 | 4 | 0 | 1 | 1
CC(C)(S)C(=O)N[C@@H](CS)C(=O)O [BUCILLAMINE] | 9.4 | 0 | 2 weeks | 0 | 0 | 0 | 0 | 0 | 0 | 0 | 0 | 0 | 0 | 0 | 5
CN1CCN2c3ncccc3Cc3ccccc3C2C1 (stereo not given) [MIRTAZAPINE] | 1 | 0 | 1 year - 3 years | 0 | 1 | 0 | 0 | 0 | 1 | 0 | 0 | 1 | 0 | 1 | 2
CCC(=O)O[C@@H]1CC(=O)O[C@H](C)C/C=C/C=C/[C@H](O)[C@H](C)C[C@H](CC=O)[C@H](O[C@@H]2O[C@H](C)[C@@H](O[C@H]3C[C@@](C)(O)[C@@H](OC(=O)CC)[C@H](C)O3)[C@H](N(C)C)[C@H]2O)[C@H]1OC [MIDECAMYCIN] | 2.3 | 0 | 1 days | 0 | 0 | 0 | 0 | 0 | 1 | 0 | 0 | 1 | 0 | 1 | 3
CCC[C@H](N[C@@H](C)C(=O)N1[C@H](C(=O)O)C[C@@H]2CCCC[C@@H]21)C(=O)OCC [PERINDOPRIL] | 12.2 | 0 | 3 weeks | 0 | 0 | 0 | 0 | 0 | 1 | 0 | 0 | 1 | 0 | 0 | 1
CNC(=C[N+](=O)[O-])NCCSCc1csc(CN(C)C)n1 [NIZATIDINE] | 3.5 | 0.2 | 2 weeks | 0 | 0 | 0 | 0 | 0 | 2 | 0 | 0 | 2 | 1 | 1 | 3
N[C@@H]1CON=C1O [CYCLOSERINE] | 13 | 5.4 | 11 weeks | 0 | 0 | 0 | 0 | 0 | 2 | 0 | 0 | 2 | 0 | 1 | 3
COc1ccc2c(c1)N(C[C@H](C)CN(C)C)c1ccccc1S2 [LEVOMEPROMAZINE] | 4.5 | 2.7 | 1.2 months - 2 months | 3 | 0 | 0 | 0 | 0 | 1 | 0 | 0 | 4 | 0 | 0 | 2
Clc1ccc(COC(Cn2ccnc2)c2ccc(Cl)cc2Cl)cc1 (stereo not given) [ECONAZOLE] | 0 | 0 | 4 months | 0 | 0 | 0 | 0 | 0 | 0 | 0 | 0 | 1 | 0 | 0 | 1
CCOC(=O)C(C)(CC)Oc1ccc(Cc2ccc(Cl)cc2)cc1 (stereo not given) [BECLOBRATE] | 1 | 0 | 4 months - 6.5 months | 0 | 0 | 0 | 0 | 0 | 1 | 0 | 0 | 2 | 0 | 2 | 1
